# Assay results from patent US20170015696A1, “SOLID STATE FORMS OF SOFOSBUVIR” (RATIOPHARM GMBH, priority 2014, published 2017).
# Test: Storage stability of the solid state form at ambient conditions
# Assay type: physicochemical
# Conditions: stored at ambient conditions (e.g., 1 atmosphere at RT)
# Source text: Form A has certain advantageous properties as discussed above. Particularly, form A is stable for a period of 16 months when stored at ambient conditions (e.g., 1 atmosphere at RT).
smiles,measurement,value
"CC(C)OC(=O)[C@H](C)N[P@](=O)(OC[C@H]1O[C@@H](n2ccc(=O)[nH]c2=O)[C@](C)(F)[C@@H]1O)Oc1ccccc1 [form A, Sofosbuvir]",period for which the form is stable when stored,16 months
